Assay results reported in patent US20120010196A1, “METHODS OF TREATING NEURODEGENERATIVE DISORDERS AND DISEASES” (priority 2010, published 2012).
Where a name gives a salt, the structure may show the parent alone.

How the values were obtained:
[1] = system: axons and growth cones of hippocampal neurons from wild-type mice; test: Immunofluorescence quantification of protein levels in axons and growth cones of wild-type hippocampal neurons; type: cell-based; conditions: for RhoA levels in axons, percentage of control vehicle-treated neurons / RhoA levels in growth cones, percentage of control vehicle-treated neurons: immunohistochemical analysis, mean±SEM, n=25-40, Mdm2 inhibitor 1 μM
Experimental: (§1) Neuronal cultures. Cortical and hippocampal neurons were prepared from npc1+/+ and npc1−/− embryos at embryonic day 18 (E18); time-pregnant wild-type BALB/c or npc1+/− mice were obtained either from Charles River Laboratories (San Diego, Calif.) or from our breeding colony respectively. Neurons were cultured in NeuroBasal (GIBCO, Carlsbad, Calif.) with 10% bovine serum albumin (BSA), 2% B27, and 1% glutamine for three to four days before being used.
(§2) Treatment. For primary cultured neurons, chemicals (U18666A and inhibitors of various enzymes) were first dissolved in 10% DMSO before being diluted in cultured medium; final DMSO concentration was lower than 0.01%. For in vivo treatment, hydroxyfasudil monohydrochloride (Sigma) was dissolved in double-distilled H2O and injected subcutaneously at 10 mg/kg, twice a day from postnatal day 7 to day 28.
(§3) Immunofluorescent staining. Hippocampal neurons were fixed with 4% paraformaldehyde in phosphate buffer (PB; pH 7.4) for 15 min. After washing with 1× phosphate buffer saline (PBS), cells were permeabilized with 0.05% Triton X-100 in 1×PBS for 15 min, and incubated with blocking buffer (3% BSA, 0.02% Triton X-100 in 1×PBS) for 15 min before being probed with primary antibodies. The following primary antibodies were used: anti-E6AP (1:1000), anti-phospho-p53 (1:250), anti-phospho-4EBP1 (1:1000), antiphospho-Mdm2 antibody (1:250), anti-phospho-p38 antibody (1:250), anti-RhoA antibody (1:1500). All primary antibodies were diluted in blocking buffer and incubated at 4° C. for 18 h. After six washes (6×10 min) with 1×PBS at room temperature, cells were incubated with secondary antibodies, Alexa488-anti-rabbit (1:500) or Alexa594-anti-mouse (1:500); both antibodies were diluted in blocking buffer and incubated at room temperature for one h. Cells were then washed with 1×PBS (6×10 min) and sealed with mounting medium (Vectashield; Vector Laboratories, Inc., Burlingame, Calif.) containing 49,69-diamidino-2-phenylindole (DAPI) to stain nuclei. Immunofluorescent signal was detected with a Nikon confocal microscope (Nikon TE 2000U with DEclipse C1 system; Melville, N.Y.).
(§4) Quantification of growth cone morphology and immunoreactivity. Confocal images were taken using the 60× oil-immersion objective. About 20-30 images were randomly selected from each culture dish (20 mm in diameter); at least four to six dishes from three to six independent culture preparations/experiments were used for each experimental group. Within an experiment, cultures used for different experimental groups and designed for comparison were stained simultaneously and imaged with the same acquisition parameters. Quantification was done blindly by multiple researchers. Growth cones with less than 1 filopodium were considered collapsed; 100 growth cones were-quantified for each experimental group. Image J software was used to quantify immunoreactivity intensity of p-p53 and RhoA in axons and growth cones; the “total integrated density” was used instead of “average intensity”. Briefly, individual growth cones were outlined manually and the total integrated density was measured using Image J software. For quantification of immunoreactivity in axons, a 50 μm fragment of axons from the neck of growth cones towards the cell body was selected and integrated density measured.

[2] = system: hippocampal neurons cultured from wild-type mice; test: Quantification of growth cone collapse in cultured neurons from wild-type mice (U18666A-induced); type: cell-based; conditions: for growth cone collapse (share of neurons): 1 μM U18666A for 18 h
Experimental: as §1, §2, §3, §4

[3] = system: cortical neurons cultured from wild-type mice; test: Immunoblotting analysis of various proteins in cultured cortical neurons (U18666A-induced changes); type: cell-based; conditions: for RhoA level (immunoblot) / Ubiquitin level (immunoblot) / p-4EBP1 level (immunoblot) / p-LIMK level (immunoblot) / p-Mdm2 level (immunoblot) / p-p38 level (immunoblot) / p-p53Δ level (immunoblot) / t-p38 level (immunoblot) / t-p53 level (immunoblot): DIV4 cortical neurons from wild-type mice, 5 μM U18666A, inhibitor pre-treatment 1 μM, DMSO = 100, n = 3-6
Experimental: as §1, §2
Immunoprecipitation and immunoblotting procedures. For immunoprecipitation, cultured cortical neurons were lysed in lysis buffer [0.05 M Tris base, 0.9% NaCl, pH 7.6, and 0.5% Triton X-100 plus Protease Inhibitors Cocktail (1:100; EMD Biosciences) and phosphatase inhibitor cocktails (1:500; Sigma)]. Lysates were centrifuged at 16,000×g for 30 min at 4° C. Supernatant were then cleared with a mixture of protein A/Gagarose beads (each 50%) for 1 h at 4 uC, and after a brief spin, pellets were discarded. A small portion of the supernatants was used as input. The reminder of the supernatant was immunoprecipitated overnight with control IgG or Tau1 antibodies. Immunoprecipitates were captured by incubation with protein A/G-agarose beads for 3 h at 4° C. After several washes, the beads were resuspended in 2×SDS sample buffer [4% sodium dodecyl sulfate (SDS), 100 mM Tris-HCl (pH 6.8), 10% b-mercaptoethanol, 20% glycerol and 0.2% bromophenol blue] and boiled for 10 min. The resulting proteins were separated by SDS-PAGE, and transferred to polyvinylidene difluoride membranes for immunoblotting using previously described protocols.
Because the p-p53Δ and p-p53 bands were very close in immunoblots and the former was the predominant band, p-p53Δ levels were used as an index of p-p53 degradation. Immunoprecipitation was used to determine whether p-p53 truncation affected its association with the microtubule-associated protein tau, a protein that is abundantly and exclusively expressed in axons. p53 labeled by either anti-p-p53 or anti-p53 antibodies was immunoprecipitated by Tau1 antibodies (FIG. 5B).
Increased levels of p-p53Δ and p-Mdm2 were quantified using the ImageJ program (National Institutes of Health, Bethesda, Md.). The quantified levels are contained in Table 1 below.

hippocampal neurons = test: Filipin staining of cholesterol in cultured hippocampal neurons; type: cell-based, mice; conditions: 1 μM U18666A for 18 h
Experimental: Filipin staining. […] After immunostaining with anti-E6-AP and anti-p-p53 antibodies and corresponding secondary antibodies conjugated with either Alexa Fluor H 594 or Alexa Fluor H 488, neurons were washed with 1×PBS and incubated in the dark with […] filipin in 1×PBS for 2 h at room temperature. Neuronal cultures were then washed again with 1×PBS before being examined with confocal microscopy.
Because axonal growth cone collapse in hippocampal neurons from npc1−/− mice was associated with decreased levels of p-p53, over-expression of wild-type p53 was tested to determine if it could reverse growth cone collapse. In this set of experiments, the amphiphilic amine and cholesterol transport inhibitor, U18666A, was used to induce a NPC-like phenotype in hippocampal neurons cultured from wild-type mice. U18666A has been used to induce NPC-like phenotype in various cultured cells, including neurons. Treatment with 1 μM U18666A for 18 h induced growth cone collapse in about 80% of hippocampal neurons prepared from wild-type mice and transfected with an EGFP-vector or a vector containing p53 with the R175H mutation (p53-R175H), a conformational mutation that is frequently found in tumor cells that lack p53 function (FIGS. 1D and E). […]

npc1−/− mice = test: In vivo ROCK inhibition in developing npc1−/− mice, immunohistochemistry of brain sections; conditions: 10 mg/kg subcutaneously twice a day, postnatal day 7 to 28
Experimental: Animals. A breeding colony of Npc1″ heterozygous mice that were on a BALB/c background (Jackson Laboratory, Bar Harbor, Me.) was established in order breed wild type (npc+/+) and npc1−/− mice. The genotype of the mice was determined by employing a polymerase chain reaction (PCR)-based method as described in reference. The Institutional Animal Care and Use Committee (IACUC) of Western University of Health Sciences approved the care and experimental protocols that these examples describe. The National Institutes of Health Guide for the Care and Use of Laboratory Animals and Animal Husbandry governed the use of animals by the inventors.
as §2
Perfusion and Immunohistochemistry. Mice were perfused with freshly prepared 4% paraformaldehyde in 1×PBS. Brains were then removed and post-fixed in 4% paraformaldehyde for 16 h followed by incubation with graded sucrose solutions. Brains were sectioned into 30 μm coronal sections with a microtome. Floating sections were processed for immunostaining as described previously. Briefly, sections were incubated with rabbit anti-p-p53 (1:250) and mouse anti-pan axonal neurofilament (SMI-312, 1:500; Covance) antibodies in 5% horse serum diluted in 0.1M PB overnight at 4° C. […] Quantification of p-p53 and neurofilament immunoreactivity in fasciculated bundles in the striatum was performed by using NIH ImageJ software. […] Analyzed area consisted of 450 μm×420 μm that was taken from two sections per mouse; three different mice were used for each experimental group. Means of integrated density and areas were quantified and expressed as percentage of values from npc1+/+ mice.

[4] = reference [26]; cited from earlier work
[5] = 1 μM SB203580 pre-treatment, immunohistochemistry
[6] = wild-type cortical neurons treated with pifithrin-μ

Compound: Cc1cncc2cccc(S(=O)(=O)N3CCCNC[C@@H]3C)c12.Cl.Cl [H 1152, (S)-(+)-2-Methyl-1-[(4-methyl-5-isoquinolinyl)sulfonyl]-hexahydro-1H-1,4-diazepine dihydrochloride]
- effect on U18666A-induced decrease in p-p53 immunoreactivity ([1]; 100 nM H 1152 for 3 h, then 5 μM U18666A 2 min): blocked
- effect on U18666A-induced growth cone collapse ([2]; pre-treatment with 100 nM H 1152 for 3 h, then 5 μM U18666A for 2 min): blocked

Compound: Bc1ccc(C(=O)/C=C/c2ccc(I)cc2)cc1 [Mdm2-In, trans-4-Iodo, 49-boranyl-chalcone]
- effect on U18666A-induced decrease in p-p53 levels in axons and growth cones ([1]; Mdm2 inhibitor pre-treatment (1 μM), n=25-40 neurons): significantly reduced
- RhoA levels in axons, percentage of control vehicle-treated neurons [1]: 102±15%
- RhoA levels in growth cones, percentage of control vehicle-treated neurons [1]: 136±20%
- RhoA level (immunoblot) [3]: 105 ± 1
- Ubiquitin level (immunoblot) [3]: 102 ± 5
- p-4EBP1 level (immunoblot) [3]: 104 ± 2
- p-LIMK level (immunoblot) [3]: 117 ± 6
- p-Mdm2 level (immunoblot) [3]: 100 ± 4
- p-p38 level (immunoblot) [3]: 108 ± 17
- p-p53Δ level (immunoblot) [3]: 106 ± 2
- t-p38 level (immunoblot) [3]: 104 ± 0
- t-p53 level (immunoblot) [3]: 104 ± 1
- effect on U18666A-induced growth cone collapse ([2]; pretreatment with 1 μM Mdm2-in, n=100 growth cones): significantly reduced

Compound: C[S+]([O-])c1ccc(-c2nc(-c3ccncc3)c(-c3ccc(F)cc3)[nH]2)cc1 (stereo not shown) [SB203580]
- effect on U18666A-induced RhoA increase in axons and growth cones [1, 5]: blocking effects
- effect on U18666A-induced p-p53 truncation in axons and growth cones [1, 5]: blocking effects
- RhoA level (immunoblot) [3]: 96 ± 0
- Ubiquitin level (immunoblot) [3]: 95 ± 7
- p-4EBP1 level (immunoblot) [3]: 99 ± 3
- p-LIMK level (immunoblot) [3]: 100 ± 3
- p-Mdm2 level (immunoblot) [3]: 92 ± 1
- p-p38 level (immunoblot) [3]: 96 ± 24
- p-p53Δ level (immunoblot) [3]: 94 ± 6
- t-p38 level (immunoblot) [3]: 99 ± 5
- t-p53 level (immunoblot) [3]: 107 ± 2
- effect on U18666A-induced growth cone collapse ([2]; preincubation with 1 μM SB203580 for 2 h before U18666A): significantly reduced

Compound: CCN(CC)CCO[C@H]1CC[C@@]2(C)C(=CC[C@@H]3[C@@H]2CC[C@]2(C)C(=O)CC[C@@H]32)C1 [U18666A]
- levels of "mutant" p53 in axons and growth cones ([1]; 5 μM U18666A for 2 min, DIV4): markedly reduced
- p-4EBP1 levels in axons and growth cones ([1]; 5 μM U18666A for two min): increased
- levels of p-p38 and p-Mdm2 in axons and growth cones ([1]; 5 μM U18666A for two min vs vehicle-treated controls): increased
- RhoA levels in axons, percentage of control vehicle-treated neurons [1]: 640±56%
- RhoA levels in growth cones, percentage of control vehicle-treated neurons [1]: 257±37%
- filipin fluorescence intensity (cholesterol) in axons and collapsed growth cones (hippocampal neurons): marked decrease
- p-p53 levels (immunoblot) ([3]; 5 μM U18666A for 2 min, DIV4 wild-type cortical neurons): rapid decrease
- RhoA level (immunoblot) [3]: 418
- Ubiquitin level (immunoblot) [3]: 435
- p-4EBP1 level (immunoblot) [3]: 389
- p-LIMK level (immunoblot) [3]: 411
- p-Mdm2 level (immunoblot) [3]: 549
- p-p38 level (immunoblot) [3]: 493
- p-p53Δ level (immunoblot) [3]: 775
- t-p38 level (immunoblot) [3]: 107
- t-p53 level (immunoblot) [3]: 94
- growth cone collapse (share of neurons) ([2]; neurons transfected with EGFP-vector or p53-R175H): about 80%
- growth cone collapse (share of neurons) ([2]; neurons transfected with wild-type p53): 20%
- growth cone collapse ([2]; 5 μM U18666A for 2 min, DIV4, no inhibitor, n=100 growth cones): 72±2%

Compound: CC[C@H]1CN2CCc3cc(OC)c(OC)cc3[C@@H]2C[C@@H]1C[C@H]1NCCc2cc(OC)c(OC)cc21 [emetine]
- effect on U18666A-induced phosphorylation of LIMK ([3]; emetine pretreatment): significantly reduced
- effect on pifithrin-μ-induced increase in RhoA and p-LIMK ([3]; emetine pretreatment): blocked
- effect on U18666A-induced changes in levels of p-Mdm2, p-p38 and p-p53Δ ([3]; emetine treatment): did not affect
- effect on U18666A-induced increase in RhoA levels ([3]; pre-treatment with emetine): significantly reduced
- effect on U18666A-induced growth cone collapse ([2]; emetine pretreatment, FIG. 15C legend: cortical neurons, n=100 growth cones): significantly reduced

Compound: O=c1[nH]ccc2c(S(=O)(=O)N3CCCNCC3)cccc12 [hydroxyfasudil monohydrochloride]
- SMI-312-immunopositive areas (npc1−/− mice): significantly increased
- number of axonal neurofilaments (SMI-312 staining), especially corpus callosum and striatum (npc1−/− mice): increased
- p-p53 immunoreactivity in brain sections (npc1−/− mice): increased
- blood-brain-barrier crossing [4]: cross the blood-brain-barrier
- ischemia-induced brain damage [4]: reduce ischemia-induced brain damage

Compound: NS(=O)(=O)C#Cc1ccccc1 [pifithrin-μ]
- levels of RhoA and p-LIMK (immunoblot) [3, 6]: rapid increase
- levels of p-4EBP1 [3, 6]: increased
